SMILES strings stand for the structures.

The test concerns the target T1, α4β7 integrin interaction with MadCAM-1 (RPMI8866 cells) (Homo sapiens, UniProt P13612+P26010).
T1 construct: α4β7 integrin expressing cells; endogenous in cells; host or cells: RPMI8866 cells
T1 sequence (P13612 34-1032): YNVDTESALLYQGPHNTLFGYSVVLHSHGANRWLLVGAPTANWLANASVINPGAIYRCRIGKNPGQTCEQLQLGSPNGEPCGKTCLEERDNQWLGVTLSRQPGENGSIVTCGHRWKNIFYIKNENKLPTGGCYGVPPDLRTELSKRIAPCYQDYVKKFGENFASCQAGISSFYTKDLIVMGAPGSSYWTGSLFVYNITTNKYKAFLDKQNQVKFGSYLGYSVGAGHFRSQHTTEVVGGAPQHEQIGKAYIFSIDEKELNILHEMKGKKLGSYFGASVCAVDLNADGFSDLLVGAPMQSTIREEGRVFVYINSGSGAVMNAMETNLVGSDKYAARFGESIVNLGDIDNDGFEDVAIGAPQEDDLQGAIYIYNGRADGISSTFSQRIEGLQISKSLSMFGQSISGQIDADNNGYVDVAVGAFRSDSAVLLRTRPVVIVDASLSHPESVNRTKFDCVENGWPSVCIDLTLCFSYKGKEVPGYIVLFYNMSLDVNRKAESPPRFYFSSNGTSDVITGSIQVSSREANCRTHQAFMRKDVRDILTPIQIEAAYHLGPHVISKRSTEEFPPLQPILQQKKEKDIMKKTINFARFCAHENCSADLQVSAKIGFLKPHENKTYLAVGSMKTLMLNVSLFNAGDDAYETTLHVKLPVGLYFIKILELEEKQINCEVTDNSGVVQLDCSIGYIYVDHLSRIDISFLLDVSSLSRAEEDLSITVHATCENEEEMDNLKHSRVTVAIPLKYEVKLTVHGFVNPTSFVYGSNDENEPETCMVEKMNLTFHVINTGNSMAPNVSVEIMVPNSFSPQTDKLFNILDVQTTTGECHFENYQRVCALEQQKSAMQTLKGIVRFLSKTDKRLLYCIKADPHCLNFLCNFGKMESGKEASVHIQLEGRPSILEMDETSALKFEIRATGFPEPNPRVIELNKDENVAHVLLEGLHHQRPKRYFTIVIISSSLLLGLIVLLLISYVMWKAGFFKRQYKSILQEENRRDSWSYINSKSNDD
T1 sequence (P26010 20-798): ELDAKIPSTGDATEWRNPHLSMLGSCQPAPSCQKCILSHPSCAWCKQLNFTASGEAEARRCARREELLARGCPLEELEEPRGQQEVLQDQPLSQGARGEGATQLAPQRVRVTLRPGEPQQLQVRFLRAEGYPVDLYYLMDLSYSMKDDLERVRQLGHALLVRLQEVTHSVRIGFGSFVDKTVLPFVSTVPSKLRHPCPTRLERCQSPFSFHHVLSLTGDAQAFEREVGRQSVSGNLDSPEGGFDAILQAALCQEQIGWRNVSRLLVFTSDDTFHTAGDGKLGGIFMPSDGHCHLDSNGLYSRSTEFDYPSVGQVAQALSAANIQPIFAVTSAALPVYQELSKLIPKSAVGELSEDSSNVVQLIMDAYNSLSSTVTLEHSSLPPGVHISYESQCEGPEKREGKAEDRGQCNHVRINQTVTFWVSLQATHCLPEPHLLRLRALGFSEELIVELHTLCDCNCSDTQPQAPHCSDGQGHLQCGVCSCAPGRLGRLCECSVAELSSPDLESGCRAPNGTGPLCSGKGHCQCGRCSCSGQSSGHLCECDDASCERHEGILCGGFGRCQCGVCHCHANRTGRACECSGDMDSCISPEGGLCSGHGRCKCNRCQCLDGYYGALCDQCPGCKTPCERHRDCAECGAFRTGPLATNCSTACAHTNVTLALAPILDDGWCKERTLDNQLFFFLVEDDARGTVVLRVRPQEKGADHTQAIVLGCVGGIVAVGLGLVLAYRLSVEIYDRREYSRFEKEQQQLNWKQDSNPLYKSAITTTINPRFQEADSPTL
Briefly: α4β7 Integrin Cell Capture Assay. Conditions: capture of α4β7 integrin expressing RPMI8866 cells on recombinant MadCAM-1 extracellular domain-coated plate; 0.5 mM MnCl2. Format: cell-based. The essentials:
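RPMI8866 cells (0.5×10^6 cells/mL in DMEM + 0.5% FBS + 0.5 mM MnCl2) preincubated with compound 1 h at 37 °C, then allowed to adhere 30 min at 37 °C to plates coated with MAdCAM-1 extracellular domain (1.0 μg/mL). Bound cells fixed with 2% glutaraldehyde, Hoechst-stained, imaged and counted; EC50 from cell count versus concentration.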
Broadly, the EC50 is the midpoint of the concentration-response curve. `Cc1c(-c2ccc(C[C@H](NC(=O)c3c(F)cccc3F)C(=O)O)c3c2CCC3)c(=O)n(C)c2ccc(F)cc12` [Example 105, (S)-2-(2,6-difluorobenzamido)-3-(7-(6-fluoro-1,4-dimethyl-2-oxo-1,2-dihydroquinolin-3-yl)-2,3-dihydro-1H-inden-4-yl)propanoic acid]: the 50% effective concentration (EC50) was 2.44 nM.

For `COc1cccc(OC)c1-c1ccc(CC(NC(=O)c2c(F)cc(NS(=O)(=O)c3ccc(-n4cncn4)cc3)cc2F)C(=O)O)c2c1CN(C)CC2` (stereo not shown) [Example 106, 2-(4-((4-(1H-1,2,4-triazol-1-yl)phenyl)sulfonamido)-2,6-difluorobenzamido)-3-(8-(2,6-dimethoxyphenyl)-2-methyl-1,2,3,4-tetrahydroisoquinolin-5-yl)propanoic acid], the 50% effective concentration (EC50) turned out to be 0.587 nM.

Turning to `COc1cccc(OC)c1-c1ccc(CC(NC(=O)c2c(F)cc(NS(=O)(=O)c3ccc(-n4cncn4)cc3)cc2F)C(=O)O)c2c1CN(C(C)=O)CC2` (stereo not shown) [Example 107], the EC50 stood at 0.812 nM.

As for `Cc1nc(-c2ccc(C[C@H](NC(=O)c3c(F)cc(N4CCOC[C@@H]4C(F)(F)F)cc3F)C(=O)O)c3c2OCCC3)c(=O)n(C)c1C` [Example 108, (S)-2-(2,6-difluoro-4-((R)-3-(trifluoromethyl)morpholino)benzamido)-3-(8-(4,5,6-trimethyl-3-oxo-3,4-dihydropyrazin-2-yl)chroman-5-yl)propanoic acid], the EC50 amounted to 0.26 nM.

Regarding `Cc1cc(N2CCOC[C@@H]2C(F)(F)F)cc(F)c1C(=O)N[C@@H](Cc1ccc(-n2c(=O)c3ccncc3n(C)c2=O)c2c1CCCO2)C(=O)O` [Example 115, (S)-2-(2-fluoro-6-methyl-4-((R)-3-(trifluoromethyl)morpholino)benzamido)-3-(8-(1-methyl-2,4-dioxo-1,4-dihydropyrido[3,4-d]pyrimidin-3(2H)-yl)chroman-5-yl)propanoic acid], the EC50 worked out at 0.027 nM.

As to `COCN(C(=O)c1c(F)cc(N2CCOC[C@@H]2C(F)(F)F)cc1F)[C@@H](Cc1ccc(-c2nc(C)c(C)n(C)c2=O)c2c1CCCO2)C(=O)O` [Example 116], the half-maximal effective concentration (EC50) was determined as 19 nM.

As to `Cc1nc(-c2ccc(C[C@H](NC(=O)c3c(F)cc(N4CCOC[C@@H]4C(F)(F)F)c(F)c3F)C(=O)O)c3c2OCCC3)c(=O)n(C)c1C` [Example 121], the 50% effective concentration (EC50) was 0.758 nM.

For `CC[C@@H](Nc1cc(F)c(C(=O)N[C@@H](Cc2ccc(-c3nc(C)c(C)n(C)c3=O)c3c2CCCO3)C(=O)O)c(F)c1F)C(F)(F)F` [Example 122], the EC50 was 0.271 nM.

On to `Cn1cc(C(F)(F)F)nc(-c2ccc(C[C@H](NC(=O)c3c(F)cc(N4CCOC[C@@H]4C(F)(F)F)cc3F)C(=O)O)c3c2OCCC3)c1=O` [Example 123], for which the EC50 was 0.978 nM.

For `Cn1c(=O)n(-c2ccc(C[C@H](NC(=O)c3c(F)cc(N4CCOC[C@@H]4C(F)(F)F)cc3F)C(=O)O)c3c2OCCC3)c(=O)c2ccncc21` [Example 124], the half-maximal effective concentration (EC50) was 0.065 nM.

`Cc1nc(-c2ccc(C[C@@H](C(=O)O)N(C)C(=O)c3c(F)cc(N4CCOC[C@@H]4C(F)(F)F)cc3F)c3c2OCCC3)c(=O)n(C)c1C` [Example 125]: the EC50 is 94.9 nM.

With `CC[C@@H](Nc1cc(F)c(C(=O)N[C@@H](Cc2ccc(-c3c(C)nc(C)n(C)c3=O)c3c2CCCO3)C(=O)O)c(F)c1F)C(F)(F)F` [Example 126], the concentration for a half-maximal effect (EC50) amounted to 0.379 nM.

For the molecule `Cn1c2c(nc(-c3ccc(C[C@H](NC(=O)c4c(F)cc(N5CCOC[C@@H]5C(F)(F)F)cc4F)C(=O)O)c4c3OCCC4)c1=O)CCCC2` [Example 127], the EC50 is 0.455 nM.

Regarding `Cc1cc(N2CCOC[C@@H]2C(F)(F)F)cc(F)c1C(=O)N[C@@H](Cc1ccc(-c2cnc(C)n(C)c2=O)c2c1CCCO2)C(=O)O` [Example 128], the EC50 worked out at 0.446 nM.

With `Cc1cc(N2CCOC[C@@H]2C(F)(F)F)cc(F)c1C(=O)N[C@@H](Cc1ccc(-c2c(C)nc(C)n(C)c2=O)c2c1CCCO2)C(=O)O` [Example 129], the EC50 turned out to be 0.189 nM.

Regarding `Cc1nc(C)n(C)c(=O)c1-c1ccc(C[C@H](NC(=O)c2c(F)cc(N3CCOC[C@@H]3C(F)(F)F)cc2F)C(=O)O)c2c1OCCC2` [Example 130], the EC50 is 0.341 nM.

Turning to `Cc1nc(-c2ccc(C[C@H](NC(=O)c3c(F)cc(N4CC[C@@H]4C(F)(F)F)cc3F)C(=O)O)c3c2OCCC3)c(=O)n(C)c1C` [Example 131], the EC50 worked out at 1.56 nM.

Take `Cn1ncc(C(F)(F)F)c(-c2ccc(C[C@H](NC(=O)c3c(F)cc(N4CCOC[C@@H]4C(F)(F)F)cc3F)C(=O)O)c3c2OCCC3)c1=O` [Example 132]: the EC50 was 0.193 nM.

As to `Cn1nc(C(F)(F)F)cc(-c2ccc(C[C@H](NC(=O)c3c(F)cc(N4CCOC[C@@H]4C(F)(F)F)cc3F)C(=O)O)c3c2OCCC3)c1=O` [Example 133], the concentration for a half-maximal effect (EC50) was 1.42 nM.

As to `Cc1cc(N2CCOC[C@@H]2C(F)(F)F)cc(F)c1C(=O)N[C@@H](Cc1ccc(-c2c(C)ncn(C)c2=O)c2c1CCCO2)C(=O)O` [Example 134], the EC50 is 0.374 nM.

For the molecule `Cc1cc(N2CCOC[C@@H]2C(F)(F)F)cc(F)c1C(=O)N[C@@H](Cc1ccc(-c2c(C(F)(F)F)cc(C)n(C)c2=O)c2c1CCCO2)C(=O)O` [Example 135], the EC50 is 0.094 nM.

As to `Cc1nc(-c2ccc(C[C@H](NC(=O)c3c(F)cc(N4C[C@H]5C[C@H]5[C@@H]4C(F)(F)F)cc3F)C(=O)O)c3c2OCCC3)c(=O)n(C)c1C` [Example 138], the 50% effective concentration (EC50) came out at 0.964 nM.

On to `Cc1cc(N2CCOC3(CC3)C2)cc(F)c1C(=O)N[C@@H](Cc1ccc(-c2nc(C)c(C)n(C)c2=O)c2c1CCCO2)C(=O)O` [Example 139], for which the 50% effective concentration (EC50) was 2 nM.

On to `COc1ccc(C)nc1-c1ccc(C[C@H](NC(=O)c2c(F)cc(N3CCOC[C@@H]3C(F)(F)F)cc2F)C(=O)O)c2c1OCCC2` [Example 140], for which the EC50 worked out at 0.55 nM.

Take `Cc1c(Cl)cc(-c2ccc(C[C@H](NC(=O)c3c(F)cc(N4CCOC[C@@H]4C(F)(F)F)cc3F)C(=O)O)c3c2OCCC3)c(=O)n1C` [Example 141]: the half-maximal effective concentration (EC50) was determined as 0.529 nM.

Take `Cc1cc(N2CCOC[C@@H]2C(F)(F)F)cc(F)c1C(=O)N[C@@H](Cc1ccc(-c2cc(Cl)c(C)n(C)c2=O)c2c1CCCO2)C(=O)O` [Example 142]: the EC50 worked out at 0.25 nM.

As to `Cc1nc(-c2ccc(C[C@H](NC(=O)c3c(F)cc(N4CCC(F)(F)C[C@H]4C(F)(F)F)cc3F)C(=O)O)c3c2OCCC3)c(=O)n(C)c1C` [Example 143], the EC50 came to 4.72 nM.

For `Cc1nc(-c2ccc(C[C@H](NC(=O)c3c(F)cc(N4CCC(F)(F)C[C@@H]4C(F)(F)F)cc3F)C(=O)O)c3c2OCCC3)c(=O)n(C)c1C` [Example 144], the half-maximal effective concentration (EC50) came to 0.552 nM.

On to `Cc1cc(N2CCOC[C@@H]2C(F)(F)F)cc(F)c1C(=O)N[C@@H](Cc1ccc(-c2c(N3CCC3)cc(C)n(C)c2=O)c2c1CCCO2)C(=O)O` [Example 145], for which the EC50 is 0.714 nM.

Regarding `Cc1cc(N2CCOC[C@@H]2C(F)(F)F)cc(F)c1C(=O)N[C@@H](Cc1ccc(-c2c(C)c(C(F)(F)F)cn(C)c2=O)c2c1CCCO2)C(=O)O` [Example 146], the EC50 amounted to 0.416 nM.

In the case of `Cc1cc(N2CCOC[C@@H]2C(F)(F)F)cc(F)c1C(=O)N[C@@H](Cc1ccc(-c2cc(N(C)C)c(C)n(C)c2=O)c2c1CCCO2)C(=O)O` [Example 147], the EC50 is 2.42 nM.

(Values after US20220226337A1 (Gilead Sciences, Inc., priority 2018, published 2022).)
